Patent US6124351A, “Amino acid derivatives having a nitric oxide synthase inhibiting action” (priority 1994, dated 2000)
Entries after “also recorded” stand apart in the source; their conditions may differ. Counter-ions that a name gives are not always drawn. Like-named read-outs stand apart in the source and are kept apart here.

Columns and labels:
[1] = molecular target: T1, iNOS (Rattus norvegicus, UniProt Q06518); test: Inhibition of iNOS, soluble fraction of lungs of LPS-treated rats; conversion of L-[3H] arginine to L-[3H] citrulline; format: biochemical
T1 construct: a soluble cytosolic fraction of the finally obtained supernate was used as the crude enzyme sample of iNOS; from tissue; host or cells: lungs of LPS-treated rats, 100,000×g soluble cytosolic fraction
T1 sequence (Q06518 whole entry): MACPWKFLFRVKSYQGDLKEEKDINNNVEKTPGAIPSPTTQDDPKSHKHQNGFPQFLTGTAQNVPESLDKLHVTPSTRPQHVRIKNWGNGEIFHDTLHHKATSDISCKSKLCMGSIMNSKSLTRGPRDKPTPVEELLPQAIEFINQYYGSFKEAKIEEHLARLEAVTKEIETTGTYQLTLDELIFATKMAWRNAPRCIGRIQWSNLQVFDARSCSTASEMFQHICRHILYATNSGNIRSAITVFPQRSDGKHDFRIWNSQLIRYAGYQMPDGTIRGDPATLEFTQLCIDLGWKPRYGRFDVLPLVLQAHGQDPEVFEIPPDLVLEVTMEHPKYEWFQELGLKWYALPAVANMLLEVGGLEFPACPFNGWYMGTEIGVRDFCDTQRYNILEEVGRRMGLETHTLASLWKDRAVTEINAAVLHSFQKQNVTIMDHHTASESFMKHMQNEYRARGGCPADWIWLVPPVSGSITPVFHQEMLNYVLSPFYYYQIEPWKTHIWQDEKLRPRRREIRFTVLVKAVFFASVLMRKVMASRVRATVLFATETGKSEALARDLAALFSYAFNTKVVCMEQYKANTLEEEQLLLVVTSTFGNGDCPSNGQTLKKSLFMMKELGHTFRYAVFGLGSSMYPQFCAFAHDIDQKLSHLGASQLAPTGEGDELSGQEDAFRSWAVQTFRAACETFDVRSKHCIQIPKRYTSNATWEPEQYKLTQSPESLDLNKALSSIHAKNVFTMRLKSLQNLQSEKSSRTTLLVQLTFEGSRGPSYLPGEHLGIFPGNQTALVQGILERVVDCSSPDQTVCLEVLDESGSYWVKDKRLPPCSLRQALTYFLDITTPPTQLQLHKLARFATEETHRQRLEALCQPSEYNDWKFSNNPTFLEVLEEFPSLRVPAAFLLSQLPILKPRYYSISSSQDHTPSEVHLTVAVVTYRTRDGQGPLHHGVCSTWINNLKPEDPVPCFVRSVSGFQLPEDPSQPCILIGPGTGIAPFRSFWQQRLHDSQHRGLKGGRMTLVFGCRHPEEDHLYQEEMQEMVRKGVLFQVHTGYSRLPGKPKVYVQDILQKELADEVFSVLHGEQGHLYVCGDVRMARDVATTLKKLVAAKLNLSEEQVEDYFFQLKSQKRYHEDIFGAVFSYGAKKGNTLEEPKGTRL
Procedure: (§1) Compounds of the invention were evaluated for their inhibitory effect against NOS isoforms in comparison with the well known NOS inhibitors. The following were used as crude enzyme fractions of the respective NOS isoforms: a soluble fraction of the rat cerebral cortex for N-cNOS and a homogenate of cow pulmonary arterial endothelium cell (CPAE) for E-cNOS, whereas for iNOS, rats were administered lipopolysaccharide (LPS, 10 mg/kg, i.p.) and lungs were removed 6 h later to prepare soluble fractions.
The crude enzyme sample of iNOS was prepared by the following procedure. Rats were administered intraperitoneally with LPS (10 mg/kg) and, 6 h later, perfused in a transcardiac manner with physiological saline containing 10 U/ml of heparin; thereafter, lungs were removed. Subsequently, 5 volumes of 50 mM Tris-HCl containing 1 mM DTT (pH 7.4) was added and the mixture was homogenized for 3 min, followed by centrifugation of the homogenate at 1,000×g for 10 min. The resulting supernate was centrifuged at 100,000×g for 60 min and a soluble cytosolic fraction of the finally obtained supernate was used as the crude enzyme sample of iNOS.
The method of measuring NOS activity was basically the same as already reported by the present inventors and consisted of determining quantitatively the conversion of a substrate L-[^3 H] arginine to a reaction product L-[^3 H] citrulline [Nagafuji et al., in Brain Edema IX (Ito et al. eds.) 60, pp. 285-288, 1994, Acta Neurochir., Springer-Verlag].
The reaction solution consisted of 100 μM L-[^3 H] arginine, a prepared NOS enzyme (6-20 μg/ml protein), 1.25 mM CaCl2, 1 mM EDTA, 10 μg/ml calmodulin, 1 mM NADPH, 100 μM tetrahydrobiopterine, 10 μM FAD, 10 μM FMN and 50 mM Tris-HCl (pH 7.4), to which one of the compounds of the invention or one of the control compounds was added.
(§2) The reaction was started by addition of L-[^3 H] arginine and following incubation at 37° C. for 10 min, the reaction was terminated by addition of 2 ml of 50 mM Tris-HCl (pH 5.5) containing 1 mM EDTA and placing the mixture on ice. The reaction solution was passed through a cation-exchange resin column (Dowex AG50WX-8, Na^+ form, 3.2 ml) to separate the reaction product L-[^3 H] citrulline from the unreacted residual substrate L-[^3 H] arginine. The elute was combined with another elute resulting from the passage of distilled water (3 ml) through the column and put into a mini vial for recovery of L-[^3 H] citrulline. Thereafter, 5 ml of a scintillation fluid was added and the contained radioactivity was measured with a liquid scintillation counter to determine the amount of L-[^3 H] citrulline. The protein concentration of each crude enzyme sample was determined with a micro-assay kit of Biorad Co.
(§3) All data in Table 4 are expressed by mean ± standard error, with the number of cases indicated within parentheses.

[2] = tested on: iNOS; conditions: cited from earlier work
[3] = molecular target: T2, N-cNOS (Rattus norvegicus, UniProt P29476); test: biochemical; conditions: for IC50: N-cNOS, rat cerebral cortex, 100 μM L-[3H] arginine, 37° C., 10 min, pH 7.4, mean ± standard error
T2 construct: a soluble cytosolic fraction of the finally obtained supernate was used as the crude enzyme sample of N-cNOS; from tissue; host or cells: cerebral cortex of normal untreated male SD rats, 100,000×g soluble cytosolic fraction
T2 sequence (P29476 whole entry): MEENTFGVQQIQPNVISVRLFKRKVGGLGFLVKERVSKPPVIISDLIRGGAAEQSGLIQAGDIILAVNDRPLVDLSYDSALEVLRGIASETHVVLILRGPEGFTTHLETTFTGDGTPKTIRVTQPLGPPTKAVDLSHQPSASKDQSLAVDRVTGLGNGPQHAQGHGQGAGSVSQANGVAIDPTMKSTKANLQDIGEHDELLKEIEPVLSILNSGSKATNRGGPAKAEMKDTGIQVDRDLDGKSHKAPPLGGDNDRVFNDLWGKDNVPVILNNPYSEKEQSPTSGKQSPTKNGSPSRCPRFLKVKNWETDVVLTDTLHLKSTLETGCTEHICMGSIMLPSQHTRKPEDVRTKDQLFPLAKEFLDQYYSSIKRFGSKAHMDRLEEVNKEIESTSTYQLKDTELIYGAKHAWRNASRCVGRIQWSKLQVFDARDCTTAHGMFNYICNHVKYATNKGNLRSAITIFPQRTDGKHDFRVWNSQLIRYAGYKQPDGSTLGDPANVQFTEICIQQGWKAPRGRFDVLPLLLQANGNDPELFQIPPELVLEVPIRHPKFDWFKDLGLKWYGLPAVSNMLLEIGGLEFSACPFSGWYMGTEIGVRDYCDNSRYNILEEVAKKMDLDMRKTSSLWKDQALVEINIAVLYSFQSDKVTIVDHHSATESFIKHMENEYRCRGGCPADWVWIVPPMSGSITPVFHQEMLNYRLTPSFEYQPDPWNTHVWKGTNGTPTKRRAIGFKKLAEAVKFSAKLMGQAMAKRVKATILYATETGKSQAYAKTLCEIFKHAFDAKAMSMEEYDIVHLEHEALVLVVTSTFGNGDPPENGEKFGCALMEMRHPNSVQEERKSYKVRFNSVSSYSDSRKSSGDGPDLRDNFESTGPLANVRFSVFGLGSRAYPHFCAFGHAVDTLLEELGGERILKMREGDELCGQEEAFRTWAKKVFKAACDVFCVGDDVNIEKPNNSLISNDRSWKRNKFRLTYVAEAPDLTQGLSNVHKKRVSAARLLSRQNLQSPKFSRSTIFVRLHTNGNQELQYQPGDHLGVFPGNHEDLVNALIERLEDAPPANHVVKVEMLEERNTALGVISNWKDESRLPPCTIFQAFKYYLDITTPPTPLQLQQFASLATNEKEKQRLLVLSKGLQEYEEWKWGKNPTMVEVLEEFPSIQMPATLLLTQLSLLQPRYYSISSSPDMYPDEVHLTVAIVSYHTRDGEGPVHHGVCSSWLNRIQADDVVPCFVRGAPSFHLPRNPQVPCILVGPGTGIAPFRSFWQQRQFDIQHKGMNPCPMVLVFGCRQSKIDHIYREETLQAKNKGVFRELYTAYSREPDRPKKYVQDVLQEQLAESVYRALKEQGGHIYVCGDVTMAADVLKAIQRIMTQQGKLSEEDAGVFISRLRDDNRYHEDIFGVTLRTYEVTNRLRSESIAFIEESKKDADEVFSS
Procedure: The crude enzyme sample of N-cNOS was prepared by the following procedure. Normal untreated male SD rats (body weight, 300-400 g) were decapitated; the whole brain was immediately removed from each animal and the cerebral cortex was separated on ice. Then, 5 volumes of 50 mM Tris-HCl containing 1 mM DTT (pH 7.4) was added and the mixture was homogenized for 3 min, followed by centrifugation at 1,000×g for 10 min. The resulting supernate was further centrifuged at 100,000×g for 60 min and a soluble cytosolic fraction of the finally obtained supernate was used as the crude enzyme sample of N-cNOS.

[4] = molecular target: T3, E-cNOS (Bos taurus, UniProt P29473); test: Inhibition of E-cNOS, homogenate of cow pulmonary arterial endothelium cell (CPAE); conversion of L-[3H] arginine to L-[3H] citrulline; format: biochemical
T3 construct: the mixture was homogenized for 3 min to yield the crude enzyme sample of E-cNOS; endogenous in cells; host or cells: CPAE (cow pulmonary arterial endothelium cells), whole homogenate
T3 sequence (P29473 2-1205): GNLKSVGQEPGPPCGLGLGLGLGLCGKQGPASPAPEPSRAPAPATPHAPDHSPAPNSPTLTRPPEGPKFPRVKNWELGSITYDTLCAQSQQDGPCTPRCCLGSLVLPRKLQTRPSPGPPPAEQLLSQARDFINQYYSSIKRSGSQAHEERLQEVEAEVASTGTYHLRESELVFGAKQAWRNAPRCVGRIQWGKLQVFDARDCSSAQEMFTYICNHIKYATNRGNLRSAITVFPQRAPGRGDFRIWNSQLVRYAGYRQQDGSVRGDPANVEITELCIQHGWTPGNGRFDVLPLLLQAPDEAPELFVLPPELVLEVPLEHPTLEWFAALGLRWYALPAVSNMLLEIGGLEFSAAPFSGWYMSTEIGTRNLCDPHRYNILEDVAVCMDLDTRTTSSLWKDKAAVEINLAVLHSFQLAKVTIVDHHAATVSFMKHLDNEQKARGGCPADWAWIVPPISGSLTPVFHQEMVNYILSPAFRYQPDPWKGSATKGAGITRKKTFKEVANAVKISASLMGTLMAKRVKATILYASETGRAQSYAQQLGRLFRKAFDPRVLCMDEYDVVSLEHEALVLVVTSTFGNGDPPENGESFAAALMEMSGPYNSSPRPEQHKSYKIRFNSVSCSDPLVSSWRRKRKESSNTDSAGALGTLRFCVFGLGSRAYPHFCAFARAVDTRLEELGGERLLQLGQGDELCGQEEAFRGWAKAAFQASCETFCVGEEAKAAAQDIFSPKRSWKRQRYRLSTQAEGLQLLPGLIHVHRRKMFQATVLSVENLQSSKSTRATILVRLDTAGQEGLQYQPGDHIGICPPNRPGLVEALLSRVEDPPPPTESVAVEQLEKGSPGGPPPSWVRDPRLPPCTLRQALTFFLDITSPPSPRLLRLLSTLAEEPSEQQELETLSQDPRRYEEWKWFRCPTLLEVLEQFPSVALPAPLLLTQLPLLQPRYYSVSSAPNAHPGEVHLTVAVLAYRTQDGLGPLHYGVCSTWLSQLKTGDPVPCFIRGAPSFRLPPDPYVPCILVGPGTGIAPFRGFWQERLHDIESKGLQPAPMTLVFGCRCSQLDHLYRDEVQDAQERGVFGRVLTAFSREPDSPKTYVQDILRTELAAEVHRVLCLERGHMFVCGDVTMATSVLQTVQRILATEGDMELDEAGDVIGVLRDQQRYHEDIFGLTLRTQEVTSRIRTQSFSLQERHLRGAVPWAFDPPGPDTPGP
Procedure: as §1
The crude enzyme sample of E-cNOS was prepared by the following procedure. A cow pulmonary arterial endothelium cell (CPAE) was cultured in a MEM medium containing 20% of FBS. Several days later, the cells were detached from the flask using a solution of 0.25% trypsin containing 1 mM EDTA and after addition of 0.1 M phosphate-buffered saline (PBS; pH 7.4) diluted with physiological saline, centrifugation was conducted at 1,000 rpm for 5 min. The supernate was then discarded and upon addition of a suitable amount of PBS, centrifugation was performed at 1,000 rpm for 5 min to wash the cells. The same procedure was repeated using 50 mM Tris-HCl containing 1 mM DTT (pH 7.4) to wash the cells. The precipitating cells were added an adequate amount of 50 mM Tris-HCl containing 1 mM DTT (pH 7.4) and the mixture was homogenized for 3 min to yield the crude enzyme sample of E-cNOS.
as §2, §3

[5] = index of selectivity, N-cNOS vs iNOS
[6] = read-out: IC50 value iNOS (the concentration necessary to inhibit 50% activity), iNOS, LPS rat lung, 100 μM L-[3H] arginine, 37° C., 10 min, pH 7.4, mean ± standard error
[7] = iNOS, LPS rat lung, 100 μM L-[3H] arginine, 37° C., 10 min, pH 7.4, mean ± standard error
[8] = compared with existing NOS inhibitors, dihydrochloride
[9] = index of selectivity, N-cNOS vs E-cNOS
[10] = E-cNOS, CPAE homogenate, 100 μM L-[3H] arginine, 37° C., 10 min, pH 7.4, mean ± standard error

| Compound | Ratio of I50 values iNOS/N-cNOS [3, 5] | IC50 [1, 7] | IC50 [3] | Ratio of I50 values E-cNOS/N-cNOS [3, 9] | IC50 [4, 10] | other results |
| --- | --- | --- | --- | --- | --- | --- |
| N=C(N)NN [AG, aminoguanidine, reference compound] | 1.3 |  |  |  |  | IC50 [1]: 27.2 µM; selectivity for iNOS vs E-cNOS (in words) ([2]; Griffith et al. 1993): selectivity for iNOS in comparison with the E-cNOS inhibiting action; inhibiting potency and selectivity for iNOS (in words) ([2]; as a therapeutic against hypotension in sepsis): insufficient to warrant its use as a therapeutic effective against hypotension in sepsis; Ratio of I50 values E-cNOS/N-cNOS [3]: > 4.9 |
| CCSC(=N)NCCC[C@H](N)C(=O)O [Example 2, δ-(S-ethylisothioureido)-L-norvaline] |  |  |  |  |  | IC50 [1, 6]: 6.76 µM; N-cNOS inhibitory effect (in words) ([3]; compared with existing NOS inhibitors): stronger N-cNOS inhibitory effect than the existing NOS inhibitors; also recorded: strong brain N-cNOS inhibitory effect; E-cNOS inhibitory effect (in words) [4]: weak E-cNOS inhibitory effect; IC50 [4]: 0.492 ± 0.315 µM |
| Cl.Cl.N=C(NCCC[C@H](N)C(=O)O)SCCF [Example 4, δ-(S-(2-fluoroethyl)-isothioureido)-L-norvaline dihydrochloride] | 47.7 | 0.501 µM | 0.0105 ± 0.0008 µM | 124.9 | 1.31 µM | selectivity for N-cNOS or E-cNOS (in words) ([3]; N-cNOS vs E-cNOS, compared with existing NOS inhibitors, dihydrochloride): more selective inhibitory effect on N-cNOS compared with the existing NOS inhibitors; also recorded: outstandingly high selective inhibitory effect on brain N-cNOS; N-cNOS inhibitory effect (in words) [3, 8]: stronger N-cNOS inhibitory effect than the existing NOS inhibitors; also recorded: strong brain N-cNOS inhibitory effect; N-cNOS selective inhibitory effect (in words) ([3]; over existing NOS inhibitors): by far superior N-cNOS selective inhibitory effect over the existing NOS inhibitors; E-cNOS inhibitory effect (in words) [4]: weak E-cNOS inhibitory effect |
| C=CCSC(=N)NCCC[C@H](N)C(=O)O.Cl.Cl [Example 6, δ-(S-(2-propenyl)isothioureido)-L-norvaline dihydrochloride] | 2.6 | 0.298 µM | 0.113 ± 0.006 µM | 10.4 | 1.18 µM | iNOS inhibitory effect (in words) [1, 8]: by far stronger iNOS inhibitory effect than the existing NOS inhibitors; also recorded: strong iNOS inhibitory effect; iNOS selective inhibitory effect (in words) ([1]; over existing NOS inhibitors): by far superior iNOS selective inhibitory effect over the existing NOS inhibitors; selectivity for N-cNOS or iNOS (in words) ([3]; N-cNOS vs iNOS, compared with existing NOS inhibitors, dihydrochloride): extremely high selective inhibitory effect on iNOS |
| O=[N+]([O-])c1cccc2cn[nH]c12 [Example 7-NI, 7-nitroindazole, reference compound] |  | 6.93 µM |  |  |  |  |
| N[C@@H](CCCNC1=NCCS1)C(=O)O [Example 8, δ-(2,3-dehydrothiazolin-2-yl)amino-L-norvaline dihydrochloride] | 9.6 | 5.41 µM | 0.564 ± 0.284 µM | 5.9 | 3.32 µM |  |
| CSC(=N)NCCCC[C@H](N)C(=O)O.Cl.Cl [Example 10, ε-(S-methylisothioureido)-L-norleucine dihydrochloride] | 8.3 | 10.4 µM | 1.26 µM | 5.1 | 6.41 µM |  |
| CCCSC(=N)NCCC[C@H](N)C(=O)O [Example 12, δ-(S-(n-propyl)isothioureido)-L-norvaline] | 3.4 | 4.5 µM | 1.34 µM | 9.3 | 12.5 µM |  |
| C=CCNC(=N)NCCC[C@H](N)C(=O)O [L-ALA, N^G -allyl-L-arginine, reference compound] | 12.1 | 12 µM |  | 15.2 |  |  |
| N=C(NCCC[C@H](N)C(=O)O)NC1CC1 [L-CPA, N^G -cyclopropyl-L-arginine, reference compound] |  |  |  |  | 1.48 µM | IC50 [1, 6]: 7.15 µM |
| COC(=O)[C@@H](N)CCCNC(=N)N[N+](=O)[O-] [L-NAME, N^G -nitro-L-arginine methyl ester, reference compound] |  |  |  |  |  | IC50 [1, 6]: 13.5 µM |
| CC(=N)NCCC[C@H](N)C(=O)O [L-NIO, N^G -iminoethyl-ornithine, reference compound] |  | 0.458 ± 0.0858 µM |  |  |  |  |
